Article PMC3277506, “Extra-Renal Elimination of Uric Acid via Intestinal Efflux Transporter BCRP/ABCG2” (PLoS ONE, 2012)

Experiments:
hMRP2 = molecular target: T1, hMRP2 (Homo sapiens, UniProt Q92887); assay: [14C]uric acid uptake by hMRP2-expressing membrane vesicles; type: biochemical; details: [14C]uric acid 20 µM, 5 min, 37°C, 4 mM ATP or AMP
T1 construct: purchased GenoMembrane Inc. (Yokohama, Japan); host or cells: Sf9 cells
Experimental: (§1) hBCRP/rBcrp, hMRP2/rMrp2, or hMDR1-expressing membrane vesicles prepared from Sf9 cells were purchased from GenoMembrane Inc. (Yokohama, Japan). Uptake experiments were conducted as described previously. Briefly, after a pre-incubation for 5 min at 37°C, membrane vesicles (50 µg protein/50 µL final reaction volume) were incubated for 5 min at 37°C in the presence of 4 mM ATP or AMP in assay buffer (1 M KCl, 1 M MgCl2, and 100 mM MOPS-Tris, pH 7.0) containing [^14C]uric acid (1 µCi/mL). The uptake reaction was terminated by adding 1 mL ice-cold washing buffer (1 M KCl, and 100 mM MOPS-Tris, pH 7.0) to the membrane solution, and the mixture was rapidly filtered through a nitrocellulose filter (0.45 µm pore size, Millipore, Bedford, MA). The filters were washed twice with 5 mL ice-cold washing buffer. The filters were dried and dissolved in Clearsol-I for quantitation of radioactivity.

rMrp2 = molecular target: T2, rMrp2 (Rattus norvegicus, UniProt Q63120); assay: [14C]uric acid uptake by rMrp2-expressing membrane vesicles; type: biochemical; details: [14C]uric acid 20 µM, 5 min, 37°C, 4 mM ATP or AMP
T2 construct: purchased GenoMembrane Inc. (Yokohama, Japan); host or cells: Sf9 cells
T2 sequence (Q63120 whole entry): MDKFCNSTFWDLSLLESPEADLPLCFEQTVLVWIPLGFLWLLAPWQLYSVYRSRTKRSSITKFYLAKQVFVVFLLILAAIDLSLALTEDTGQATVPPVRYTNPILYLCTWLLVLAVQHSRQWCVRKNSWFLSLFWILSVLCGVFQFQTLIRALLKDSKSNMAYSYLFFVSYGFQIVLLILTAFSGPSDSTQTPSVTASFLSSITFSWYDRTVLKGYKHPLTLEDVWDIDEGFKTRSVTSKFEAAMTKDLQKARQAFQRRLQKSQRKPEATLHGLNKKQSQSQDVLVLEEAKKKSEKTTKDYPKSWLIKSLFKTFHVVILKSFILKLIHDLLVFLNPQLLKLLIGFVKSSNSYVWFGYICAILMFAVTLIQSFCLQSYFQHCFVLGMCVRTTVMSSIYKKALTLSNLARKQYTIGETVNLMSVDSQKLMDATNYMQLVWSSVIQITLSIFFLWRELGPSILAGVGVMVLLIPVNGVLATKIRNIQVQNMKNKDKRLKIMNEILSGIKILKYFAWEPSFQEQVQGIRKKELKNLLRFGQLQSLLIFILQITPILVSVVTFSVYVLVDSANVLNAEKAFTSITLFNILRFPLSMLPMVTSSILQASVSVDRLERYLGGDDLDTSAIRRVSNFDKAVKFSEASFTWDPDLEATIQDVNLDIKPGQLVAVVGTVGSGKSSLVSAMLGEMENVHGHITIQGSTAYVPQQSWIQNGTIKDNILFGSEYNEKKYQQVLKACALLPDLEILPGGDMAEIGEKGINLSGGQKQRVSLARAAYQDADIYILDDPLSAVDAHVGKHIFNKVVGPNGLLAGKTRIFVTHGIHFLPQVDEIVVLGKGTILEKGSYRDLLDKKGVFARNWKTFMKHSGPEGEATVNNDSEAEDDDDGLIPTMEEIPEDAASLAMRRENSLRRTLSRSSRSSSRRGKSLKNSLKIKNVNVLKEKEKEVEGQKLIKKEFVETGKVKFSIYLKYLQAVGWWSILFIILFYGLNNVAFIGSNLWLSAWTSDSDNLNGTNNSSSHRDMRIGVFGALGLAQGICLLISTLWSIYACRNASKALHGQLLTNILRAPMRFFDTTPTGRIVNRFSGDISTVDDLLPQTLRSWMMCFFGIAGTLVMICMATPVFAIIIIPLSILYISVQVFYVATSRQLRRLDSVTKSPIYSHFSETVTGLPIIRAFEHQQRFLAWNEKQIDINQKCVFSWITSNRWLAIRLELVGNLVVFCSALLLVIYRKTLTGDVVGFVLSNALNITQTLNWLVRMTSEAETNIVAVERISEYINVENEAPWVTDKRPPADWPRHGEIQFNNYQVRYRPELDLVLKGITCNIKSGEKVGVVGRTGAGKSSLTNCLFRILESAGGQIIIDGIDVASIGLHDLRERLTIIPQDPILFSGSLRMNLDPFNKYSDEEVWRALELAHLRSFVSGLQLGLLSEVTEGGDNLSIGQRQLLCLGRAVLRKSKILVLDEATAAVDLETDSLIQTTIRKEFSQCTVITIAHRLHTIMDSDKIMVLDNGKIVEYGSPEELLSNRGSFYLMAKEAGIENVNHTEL
Experimental: as §1

rBcrp = molecular target: T3, rBcrp (Rattus norvegicus, UniProt Q80W57); assay: [14C]uric acid uptake by rBcrp-expressing membrane vesicles; type: biochemical; set-up: purchased GenoMembrane Inc. (Yokohama, Japan); host or cells: Sf9 cells
T3 sequence (Q80W57 1-657): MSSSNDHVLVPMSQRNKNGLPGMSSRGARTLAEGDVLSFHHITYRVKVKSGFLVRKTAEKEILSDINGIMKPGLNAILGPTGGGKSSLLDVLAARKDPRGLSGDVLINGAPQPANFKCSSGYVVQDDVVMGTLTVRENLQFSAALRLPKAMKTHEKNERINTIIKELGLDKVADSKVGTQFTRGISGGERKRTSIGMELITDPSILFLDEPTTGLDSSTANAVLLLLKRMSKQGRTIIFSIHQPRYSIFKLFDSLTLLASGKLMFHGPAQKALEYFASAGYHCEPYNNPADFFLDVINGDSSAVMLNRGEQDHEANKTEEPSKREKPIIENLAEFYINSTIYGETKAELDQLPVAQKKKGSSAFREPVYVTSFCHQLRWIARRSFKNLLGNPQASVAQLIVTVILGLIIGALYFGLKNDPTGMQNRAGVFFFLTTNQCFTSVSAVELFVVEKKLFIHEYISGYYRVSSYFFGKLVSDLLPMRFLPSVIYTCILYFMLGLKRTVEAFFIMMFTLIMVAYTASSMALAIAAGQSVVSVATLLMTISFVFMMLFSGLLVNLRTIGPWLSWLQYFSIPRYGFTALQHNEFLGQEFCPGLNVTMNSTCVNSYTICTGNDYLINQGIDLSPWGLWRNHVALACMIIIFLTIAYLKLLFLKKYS
Experimental: as §1

[1] = humans; cited from earlier work
[2] = Bidirectional transcellular transport of [14C]uric acid in Caco-2 cells; type: in vitro ADME, human; details: human, Control (no inhibitor)
Experimental: Caco-2 cells were obtained from the American Type Culture Collection (Rockville, MD). Caco-2 cells were cultured in Dulbecco's modified Eagle's medium (D-MEM) (Invitrogen, Carlsbad, CA) supplemented with 10% (v/v) fetal bovine serum (Invitrogen), 100 units/mL benzylpenicillin, 100 µg/mL streptomycin, 1% (v/v) MEM non-essential amino acid solution (Invitrogen) at 37°C under an atmosphere of 5% CO2 in air. For bidirectional transport studies, Caco-2 cells were cultured on Transwell filter membrane inserts (BD Falcon, surface area 0.9 cm^2 and pore size 3 µm) at a density of 6.4×10^4 cells/cm^2 for 21 days before use for each experiment. […] Inhibitor was added to only apical side. Transport of [^14C]uric acid was measured in two directions, namely apical (AP)-to-basal (BL) and BL-to-AP directions. An aliquot of transport buffer was obtained from the donor side at 5 min for measurement of initial concentration, and from the receiver side at 30, 60, 90 and 120 min. Transport studies were performed at 37°C and pH 7.4.
The apparent permeability (Papp, cm/sec) of [^14C]uric acid across the cell monolayer was calculated using the following equation: [drawing 4] where Q is the amount of [^14C]uric acid transported over time t. Cd is the initial concentration in the donor side and A is the surface area of membrane.

[3] = Intestinal secretion of endogenous uric acid, in situ intestinal closed loop method, oxonate-treated rats; type: in vivo, rat; details: 60 min, no inhibitor
Experimental: We evaluated intestinal secretion of endogenous uric acid according to the method described previously, with some modifications. Rats were anesthetized with 50% urethane and treated with oxonate by the same method as in the in vivo animal study described above. Intestinal closed loops were made at different segments: jejunum (10 cm), ileum (10 cm), and colon (3–5 cm). Phosphate-buffered solution (PB, 0.075 M NaH2PO4 - 0.075 M Na2HPO4, pH 6.5) or inhibitor-containing PB was injected into the intestinal loop. After 60 min, the remaining luminal content in each loop was washed out and collected for quantitation. Blood was obtained from the jugular vein at 1, 20, 40 and 60 min. Plasma was obtained by centrifugation and used for quantitation.
The following equation was used to calculate intestinal secretory clearance (µL/min/cm loop) and estimated total intestinal secretory clearance (CLintestine, estimated) (mL/min): [drawing 1] [drawing 2] [drawing 3] where A is the amount of uric acid secreted into the intestinal lumen of each loop for 60 min, L is the length of the intestine, and AUC is area under the plasma concentration-time curve.

T1 sequence (Q92887 whole entry): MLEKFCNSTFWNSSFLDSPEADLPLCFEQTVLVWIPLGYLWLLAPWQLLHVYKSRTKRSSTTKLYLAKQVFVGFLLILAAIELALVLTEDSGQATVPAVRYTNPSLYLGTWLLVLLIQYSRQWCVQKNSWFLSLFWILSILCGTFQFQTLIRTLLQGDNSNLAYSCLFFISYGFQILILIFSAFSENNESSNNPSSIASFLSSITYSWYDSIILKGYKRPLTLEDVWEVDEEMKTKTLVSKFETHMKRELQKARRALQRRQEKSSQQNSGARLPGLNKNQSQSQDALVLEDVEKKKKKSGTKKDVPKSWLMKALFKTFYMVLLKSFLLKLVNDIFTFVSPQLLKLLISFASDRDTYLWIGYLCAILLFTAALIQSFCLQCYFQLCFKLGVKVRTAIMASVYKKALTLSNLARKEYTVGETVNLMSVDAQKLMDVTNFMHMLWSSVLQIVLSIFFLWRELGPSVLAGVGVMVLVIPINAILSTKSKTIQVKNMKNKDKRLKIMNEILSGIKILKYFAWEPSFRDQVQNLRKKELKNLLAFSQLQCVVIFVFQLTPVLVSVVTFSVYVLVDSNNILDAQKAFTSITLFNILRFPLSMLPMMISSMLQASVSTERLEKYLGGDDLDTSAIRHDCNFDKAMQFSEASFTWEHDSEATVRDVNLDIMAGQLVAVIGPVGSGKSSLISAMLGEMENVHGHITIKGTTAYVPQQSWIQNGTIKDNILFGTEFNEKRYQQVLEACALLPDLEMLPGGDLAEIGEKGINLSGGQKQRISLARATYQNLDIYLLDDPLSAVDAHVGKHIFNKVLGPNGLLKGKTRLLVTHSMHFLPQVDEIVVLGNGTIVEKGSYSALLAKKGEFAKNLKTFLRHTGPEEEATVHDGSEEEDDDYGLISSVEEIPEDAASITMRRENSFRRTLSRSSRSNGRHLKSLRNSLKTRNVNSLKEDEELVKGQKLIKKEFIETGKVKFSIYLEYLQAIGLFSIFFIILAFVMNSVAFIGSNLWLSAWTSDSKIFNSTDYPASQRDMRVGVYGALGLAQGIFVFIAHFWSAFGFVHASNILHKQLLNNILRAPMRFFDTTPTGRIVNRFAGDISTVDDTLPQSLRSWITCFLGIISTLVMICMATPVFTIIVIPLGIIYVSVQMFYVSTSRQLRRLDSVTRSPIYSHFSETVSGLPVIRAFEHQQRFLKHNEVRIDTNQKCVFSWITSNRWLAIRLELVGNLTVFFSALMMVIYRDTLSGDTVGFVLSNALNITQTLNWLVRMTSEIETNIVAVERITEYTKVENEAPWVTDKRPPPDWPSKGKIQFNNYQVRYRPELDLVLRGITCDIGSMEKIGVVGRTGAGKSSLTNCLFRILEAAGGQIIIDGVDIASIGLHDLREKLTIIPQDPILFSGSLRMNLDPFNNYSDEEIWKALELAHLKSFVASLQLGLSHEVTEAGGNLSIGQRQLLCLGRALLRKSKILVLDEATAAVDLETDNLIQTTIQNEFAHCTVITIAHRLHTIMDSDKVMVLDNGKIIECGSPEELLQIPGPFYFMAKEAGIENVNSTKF

**Q.** For `O=c1[nH]c(=O)c2[nH]c(=O)[nH]c2[nH]1` [uric acid], which “ATP-dependent uric acid uptake” value (hMRP2) is on record?
**A.** Its value is “inactive”.

**Q.** What about the “ATP-dependent uric acid uptake” value (rMrp2) of the same compound?
**A.** The value was “Slight”.

**Q.** What about the “Vmax of uric acid transport by rBcrp” value (rBcrp; ATP-dependent uptake, maximum uric acid concentration 5 mM) of the same compound?
**A.** Its value is 67.3±4.21 nmol/5 min/mg protein.

**Q.** What about the “Uptake of uric acid in the presence of ATP versus AMP” value (rBcrp; [14C]uric acid 20 µM, 5 min, 37°C, 4 mM ATP or AMP) of the same compound?
**A.** Its value is “significantly higher”.

**Q.** And the “Biliary clearance of uric acid” value [1]?
**A.** The value was 0.1 to 0.3 mL/min.

**Q.** And the “Uric acid concentration in bile” value [1]?
**A.** The value was 1 to 2 mg/dL.

**Q.** And the “Urinary clearance of uric acid” value [1]?
**A.** Its value is 5.8 to 6.3 mL/min.

**Q.** And the efflux ratio at 120 min ([2]; Caco-2, pH 7.4, BL-to-AP / AP-to-BL permeability)?
**A.** Its efflux ratio at 120 min is 2.13 ± 0.19.

**Q.** What about the Papp A→B at 120 min ([2]; Caco-2 monolayer, 37°C, pH 7.4, read-out: Permeability AP to BL) of the same compound?
**A.** Its Papp A→B at 120 min is 0.81 ± 0.02 ×10⁻⁶ cm/s.

**Q.** What about the Papp B→A at 120 min ([2]; Caco-2 monolayer, 37°C, pH 7.4, read-out: Permeability BL to AP) of the same compound?
**A.** The Papp B→A at 120 min was 1.73 ± 0.11 ×10⁻⁶ cm/s.

**Q.** And the “Intestinal secretion clearance of endogenous uric acid” value (from here on “Intestinal secretion clearance”) ([3]; colon closed loop)?
**A.** Its value is 0.76±0.17 µL/min/cm loop.

**Q.** And the “Intestinal secretion clearance” value ([3]; ileum closed loop)?
**A.** The value was 1.58±0.13 µL/min/cm loop.

**Q.** And the “Intestinal secretion clearance” value ([3]; jejunum closed loop)?
**A.** The value was 0.49±0.03 µL/min/cm loop.
